Results from publication PMC13104648 (Acta Pharmaceutica Sinica. B, 2025).

Legend:
[1] = molecular target: NTSR1 (β-arrestin 1) (Homo sapiens, UniProt P30989); test: BRET^2 βarr recruitment, allosteric modulator assay; type: cell-based; details: pre-treatment up to 100 μmol/L
[2] = molecular target: hNTSR1 (Gα13) (Homo sapiens, UniProt P30989); test: BRET^2 G protein dissociation, allosteric modulator assay; type: cell-based; details: pre-treatment up to 100 μmol/L
[3] = molecular target: NTSR1 (β-arrestin 2) (Homo sapiens, UniProt P30989); test: BRET^2 βarr recruitment, allosteric modulator assay; type: cell-based; details: pre-treatment up to 100 μmol/L
[4] = tested on: Sprague–Dawley rats; test: Arterial blood pressure in anesthetized rats; details: 55 nmol/kg i.v.
[5] = tested on: CHO-hNTSR1 cells; test: Electric cell-substrate impedance sensing; type: cell-based, Chinese hamster; details: 10 μmol/L; for maximum change factor (normalized resistance): 4000 Hz, n = 3 in duplicate
[6] = tested on: 318 distinct 7TMRs; test: PRESTO-Tango GPCRome panel; type: cell-based, human; details: 10 μmol/L
[7] = tested on: rats; details: chronic neuropathic and inflammatory pain paradigms; cited from earlier work
[8] = tested on: mice; details: cited from earlier work
[9] = anesthetized male rats, mean ± SEM, n = 5
[10] = anesthetized male rats, mean ± SEM

hNTSR1 (Gα13), sequence (P30989 whole entry): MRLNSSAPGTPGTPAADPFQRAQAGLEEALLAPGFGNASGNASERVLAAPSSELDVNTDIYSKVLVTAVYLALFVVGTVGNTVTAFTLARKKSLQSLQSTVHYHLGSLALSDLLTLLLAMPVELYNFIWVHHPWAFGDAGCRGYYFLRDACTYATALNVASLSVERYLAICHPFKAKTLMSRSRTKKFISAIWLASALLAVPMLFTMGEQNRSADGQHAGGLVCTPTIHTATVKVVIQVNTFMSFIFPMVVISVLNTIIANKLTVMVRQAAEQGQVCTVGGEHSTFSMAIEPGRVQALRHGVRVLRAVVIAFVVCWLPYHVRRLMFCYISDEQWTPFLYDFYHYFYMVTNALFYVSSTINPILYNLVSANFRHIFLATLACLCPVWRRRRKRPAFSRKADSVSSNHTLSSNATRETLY
NTSR1 (β-arrestin 2), sequence (P30989 whole entry): as above
NTSR1 (β-arrestin 1), sequence (P30989 whole entry): as above

## CCCCCCCCCCCCCCCC(=O)O [Palmitate, palmitate]
[1]
  effect on potency or efficacy of NT, βarr1: not affected
[2]
  effect on potency or efficacy of NT, Gα13: not affected
[3]
  effect on potency or efficacy of NT, βarr2: not affected

## CC[C@H](C)[C@H](NC(=O)[C@H](Cc1ccc(O)cc1)NC(=O)[C@@H]1CCCN1C(=O)[C@H](CCCNC(=N)N)NC(=O)[C@@H](N)CCCNC(=N)N)C(=O)N[C@@H](CC(C)C)C(=O)O [NT(8-13), Neurotensin (8-13), reference compound]
[4]; [9]
  ΔMABP 20 s post-injection: −29 ± 3 mm Hg
  ΔMABP 75 s post-injection: −7 ± 3 mm Hg
  ΔMABP 200 s post-injection: −28 ± 6 mm Hg

## CCCCCCCCCCCCCCCC(=O)N[C@@H](C)C(=O)N[C@@H](CCCNC(=N)N)C(=O)N[C@@H](CCCCN)C(=O)N[C@@H](CCCCN)C(=O)N[C@@H](CO)C(=O)N[C@@H](CC(C)C)C(=O)N[C@@H](CCC(N)=O)C(=O)N[C@@H](CO)C(=O)N[C@@H](CC(C)C)C(=O)N[C@@H](CCC(N)=O)C(=O)N[C@@H](CO)C(=O)N[C@H](C(=O)N[C@@H](C)C(=O)N[C@@H](Cc1c[nH]cn1)C(N)=O)[C@@H](C)O [[Ala^13]PP-001]
[5]
  time of maximum change factor post-stimulation: 1962 s
[5]; mean ± SEM
  maximum change factor (normalized resistance): 1.06 ± 0.02
[5]; mean ± SEM, n = 3
  change factor at 3000 s (50 min) post-stimulation: 1.05 ± 0.03
[4]
  delay in hypotensive response: 40 s
  time of minimum ΔMABP post-injection: 93 s
  ΔMABP lower than that of PP-001 at 300 s: 19 ± 5 mm Hg
[4]; [10]
  minimum ΔMABP of first decline: −36 ± 4 mm Hg
  ΔMABP 300 s post-injection: −44 ± 2 mm Hg
[4]; n = 5
  ΔMABP 140 s post-administration: −31 ± 4 mm Hg

## CCCCCCCCCCCCCCCC(=O)N[C@@H](C)C(=O)N[C@@H](C)C(=O)N[C@@H](CCCCN)C(=O)N[C@@H](CCCCN)C(=O)N[C@@H](CO)C(=O)N[C@@H](CC(C)C)C(=O)N[C@@H](CCC(N)=O)C(=O)N[C@@H](CO)C(=O)N[C@@H](CC(C)C)C(=O)N[C@@H](CCC(N)=O)C(=O)N[C@@H](CO)C(=O)N[C@H](C(=O)N[C@H](C(=O)N[C@@H](Cc1c[nH]cn1)C(N)=O)C(C)C)[C@@H](C)O [[Ala^2]PP-001]
[5]
  resistance response profile: completely inactive
[4]; n = 5
  change to MABP: no change to MABP was observed

## CCCCCCCCCCCCCCCC(=O)N[C@@H](C)C(=O)N[C@@H](CCCNC(=N)N)C(=O)N[C@@H](CCCCN)C(=O)N[C@@H](CCCCN)C(=O)N[C@@H](CO)C(=O)N[C@@H](CC(C)C)C(=O)N[C@@H](CCC(N)=O)C(=O)N[C@@H](CO)C(=O)N[C@@H](CC(C)C)C(=O)N[C@@H](CCC(N)=O)C(=O)N[C@@H](CO)C(=O)N[C@H](C(=O)N[C@H](C(=O)N[C@@H](Cc1c[nH]cn1)C(N)=O)C(C)C)[C@@H](C)O [PP-001]
[5]
  baseline-to-baseline timeframe: 45 min
  time of maximum change factor post-stimulation: 1110 s
[5]; mean ± SEM
  maximum change factor (normalized resistance): 1.06 ± 0.01
[5]; post-stimulation
  time at which the trace intercepts / returns to baseline: 2700 s
[6]
  βarr2 recruitment across a panel of 318 distinct 7TMRs: did not induce βarr2 recruitment
[7]
  reversing nociceptive behaviors: effective in reversing nociceptive behaviors in rats
[4]
  delay in hypotensive response: 40 s
  time of minimum ΔMABP post-injection: 105 s
[4]; [10]
  minimum ΔMABP of first decline: −37 ± 4 mm Hg
  ΔMABP 300 s post-injection: −25 ± 3 mm Hg

## COc1ccccc1C1CCN(c2nc(C3(F)CC3)nc3ccc(N(C)CCO)cc23)CC1 [SBI-553]
[8]
  hypotension: does not induce hypotension in mice
